In patent US9708321B2, “Spiro-quinazolinone derivatives and their use as positive allosteric modulators of mGluR4” (Merck Patent GmbH, priority 2013, dated 2017):

Biological target: T1, hmGluR4 (Homo sapiens, UniProt Q14833)
T1 construct: host or cells: HEK293T
Assay: HEK-293 mGluR4 cells cAMP assay with EC20 L-Glutamate (HTRF)
Assay type: cell-based
Settings: positive allosteric activity at EC20 L-Glutamate, 10 μM Forskolin, HEK293T mGluR4 cells, cAMP HTRF; read-out: hrmGluR4/HEK293T-hmGluR4 (EC50)
Experimental: II. Biological Assays HEK-293 mGluR4 Cells cAMP Assay with EC20 L-Glutamate
Using mGluR4 suspension cell format, 10 μM Forskolin (final conc.) used to induce the production of cAMP.
Test the positive allosteric activity of the compounds of the invention at EC20 (2.3 μM for mGluR4 and 4.3 μM for mGluR6) L-Glutamate,
cAMP dymanic2 kit is intended for the direct quantitative determination of cAMP and its principle is based on HTRF technology.
• Cells: HEK293T mGluR4 cells from Multispan, cat# C1191a lot# C1191a-040910 • Culture Media: DMEM+GlutaMAX1+10% dialyzed FBS, 100 mM Sodium Pyruvate, 1 ug/ml puromycin. • Glutamine Starvation Media: DMEM without GlutaMax for plating the cells (glutamine starvation overnight). DMEM high Glucose, without phenol red, glutamine, or sodium pyruvate+10% dialyzed FBS, 100 mM Sodium Pyruvate, 1 ug/ml puromycin, 10 mM Hepes. • Hanks' balanced Salt Solution, HBSS from Invitrogen • Greiner 384 well white low volume high base plate (784075) • cAMP dynamic2 from Cisbio Bioassays • Glutamate: L-Glutamaic acid, monosodium salt, Monohydrate, 98%, from Sigma-Aldrich • Cell Preparation: split cells at 80%-90% confluence. The following day, rinse the cells with DMEM without GlutaMax and change to Glutamine Starvation Media. Incubate overnight. Assay: • Prepare compound plate: Perform compound serial dilution (uses Matrix 4341 plate), using the Bravo liquid handling platform protocol (compound serial dilution) which adds DMSO to columns 1-24 (except cols. 3 and 13). Serial dilute compounds located in columns 3 and 13 at a 1:3 ratio; 10 points (10 ul of 3 mM compound into 20 ul DMSO). Use the Bravo liquid handling platform to transfer 1 ul from the serial dilution plate into Matrix 4314 plate to create stamp plates. Prepare Compound Dilution Buffer: • Dilute 20 mM Forskolin (in DMSO) stock solution in HBSS buffer to make a 20 uM solution (forskolin buffer; 2× solution). To the forskolin buffer, add glutamate to a concentration of 8 uM (compound dilution buffer; 2× EC20 glutamate and forskolin). • Using a multidrop, add 50 ul/well of compound dilution buffer to columns 1-22 of the 2 ul compound stamp plate. Columns 23 and 24 receive forskolin buffer containing 400 uM glutamate (EC100 glutamate; 2× solution). Columns 1 and 2 receive compound dilution buffer containing EC20 glutamate, which is the basal control. • Add a glutamate dose response to row P of compound plate. Prepare the dose response by serial diluting glutamate at a 1:3 ratio in forskolin buffer starting at 2 mM glutamate (2×). Dilute the glutamate 9 times and transfer to compound plate. Prepare Cell Plates: • Harvest cells: Rinse cells with pre-warmed HBSS-10 mM HEPES (without Ca Mg) and dissociate the cells from the flask with versene. Centrifuge the cells, remove the supernatant and suspend in pre-warmed HBSS+10 mM Hepes. Count the cells and centrifuge. Remove the supernatant and suspend the cells in HBSS+Hepes (with Ca Mg) at a density of 400,000 cells/ml. Perform Assay: • Dispense 5 ul from the diluted compound plate into Greiner low volume cell plate using the Bravo liquid handling platform. Using a Multidrop with the small tubing cassette, dispense 5 ul of cells (2000 cells/well) onto the compounds contained in the low volume plates. Incubate the cells at 37° C., 5% CO2 for 30 minutes in the incubator. Assay for cAMP: • Prepare cAMP-d2 and anti-cAMP-Crytate according to the instructions for the two step assay (see Cisbio manual) and add 10 ul of the mixed reagent to each well of the assay plate using the Multidrop. Incubate at room temperature for 60 minutes and read on the Envision plate reader using the mGluR low volume cAMP HTRF 384 well protocol.

T1 sequence (Q14833 33-912): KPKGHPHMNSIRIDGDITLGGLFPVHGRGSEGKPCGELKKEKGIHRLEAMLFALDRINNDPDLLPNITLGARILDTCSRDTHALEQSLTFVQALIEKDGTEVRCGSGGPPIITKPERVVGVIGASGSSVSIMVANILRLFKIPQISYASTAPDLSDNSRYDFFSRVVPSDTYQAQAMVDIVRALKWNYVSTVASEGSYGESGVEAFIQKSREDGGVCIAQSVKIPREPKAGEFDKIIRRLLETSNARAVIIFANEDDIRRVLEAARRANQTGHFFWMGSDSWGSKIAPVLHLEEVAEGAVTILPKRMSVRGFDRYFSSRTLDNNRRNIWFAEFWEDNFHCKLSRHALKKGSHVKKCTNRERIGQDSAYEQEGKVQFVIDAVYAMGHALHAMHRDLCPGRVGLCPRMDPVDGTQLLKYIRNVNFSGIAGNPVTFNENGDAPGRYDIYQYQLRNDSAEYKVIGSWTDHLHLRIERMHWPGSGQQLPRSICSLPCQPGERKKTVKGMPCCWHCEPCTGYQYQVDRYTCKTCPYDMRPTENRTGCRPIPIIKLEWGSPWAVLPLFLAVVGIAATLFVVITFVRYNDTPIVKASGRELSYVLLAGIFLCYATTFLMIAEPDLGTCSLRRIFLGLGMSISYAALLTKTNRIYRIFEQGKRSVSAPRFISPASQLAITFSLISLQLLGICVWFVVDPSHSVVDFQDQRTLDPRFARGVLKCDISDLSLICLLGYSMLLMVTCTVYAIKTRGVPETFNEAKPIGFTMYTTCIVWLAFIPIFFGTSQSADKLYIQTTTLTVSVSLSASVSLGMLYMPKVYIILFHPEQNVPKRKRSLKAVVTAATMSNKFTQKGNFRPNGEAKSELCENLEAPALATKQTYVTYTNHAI

`COc1ccc(N2C(=O)c3ccc(F)cc3NC23CCN(Cc2ccc(F)c(F)c2)CC3)cc1` [Compound 23, 1-(3,4-Difluorobenzyl)-7′-fluoro-3′-(4-methoxyphenyl)-1′H-spiro[piperidine-4,2′-quinazolin]-4′(3′H)-one] and `COc1ccc(N2C(=O)c3ccc(OC)cc3NC23CCN(Cc2ccc(F)c(F)c2)CC3)cc1` [Compound 39, 1-(3,4-Difluorobenzyl)-7′-methoxy-3′-(4-methoxyphenyl)-1′H-spiro[piperidine-4,2′-quinazolin]-4′(3′H)-one] cannot be ordered by EC50: under 1000 nM for the first, under 1000 nM for the second.

`CCOC(=O)c1ccc2c(c1)NC1(CCN(Cc3ccc(F)c(F)c3)CC1)N(c1ccc(OC(F)(F)F)cc1)C2=O` [Compound 29, Ethyl 1-(3,4-difluorobenzyl)-4′-oxo-3′-(4-(trifluoromethoxy)phenyl)-3′,4′-dihydro-1′H-spiro[piperidine-4,2′-quinazoline]-7′-carboxylate] and `CC(C)OC(=O)c1ccc2c(c1)NC1(CCN(Cc3ccc(F)c(F)c3)CC1)N(c1ccc(OC(F)(F)F)cc1)C2=O` [Compound 31, Isopropyl 1-(3,4-difluorobenzyl)-4′-oxo-3′-(4-(trifluoromethoxy)phenyl)-3′,4′-dihydro-1′H-spiro[piperidine-4,2′-quinazoline]-7′-carboxylate] cannot be ordered by EC50: under 1000 nM for the first, under 1000 nM for the second.

First: CN(C)Cc1ccc(-c2ccc3c(c2)NC2(CCN(Cc4ccc(F)c(F)c4)CC2)N(c2ccc(OC(F)(F)F)cc2)C3=O)o1 [Compound 74, 1-(3,4-Difluorobenzyl)-7′-(5-((dimethylamino)methyl)furan-2-yl)-3′-(4-(trifluoromethoxy)phenyl)-1′H-spiro[piperidine-4,2′-quinazolin]-4′(3′H)-one]
Second: O=C1c2ccc(N3CCOCC3)cc2NC2(CCN(Cc3ccc(F)c(F)c3)CC2)N1c1ccc(OC(F)(F)F)cc1 [Compound 21, 1-(3,4-Difluorobenzyl)-7′-morpholino-3′-(4-(trifluoromethoxy)phenyl)-1′H-spiro[piperidine-4,2′-quinazolin]-4′(3′H)-one]
The EC50 of the first is higher: 1000 to 10000 nM for the first, under 1000 nM for the second. The second is the more potent here.

`COc1ccc(N2C(=O)c3ccccc3NC23CCN(Cc2ccc(F)cc2)CC3)cc1` [Compound 114, 1-(4-Fluorobenzyl)-3′-(4-methoxyphenyl)-1′H-spiro[piperidine-4,2′-quinazolin]-4′(3′H)-one] and `COc1ccc(N2C(=O)c3ccccc3NC23CN(Cc2ccc(F)cc2)C3)cc1` [Compound 101, 1-(4-Fluorobenzyl)-3′-(4-methoxyphenyl)-1′H-spiro[azetidine-3,2′-quinazolin]-4′(3′H)-one] fall in the same range of EC50: 1000 to 10000 nM for the first, 1000 to 10000 nM for the second.

First: COc1ccc(N2C(=O)c3ccccc3NC23CCN(Cc2ccc(Cl)c(Cl)c2)CC3)cc1 [Compound 54, 1-(3,4-Dichlorobenzyl)-3′-(4-methoxyphenyl)-1′H-spiro[piperidine-4,2′-quinazolin]-4′(3′H)-one]
Second: COc1ccc(N2C(=O)c3ccccc3NC23CCN(Cc2cc(C)cc(C)c2)CC3)cc1 [Compound 105, 1-(3,5-Dimethylbenzyl)-3′-(4-methoxyphenyl)-1′H-spiro[piperidine-4,2′-quinazolin]-4′(3′H)-one]
The EC50 of the first is lower: under 1000 nM for the first, 1000 to 10000 nM for the second. The first is the more potent here.

`COc1ccc(N2C(=O)c3ccc(C(=O)OC(C)C)cc3NC23CCN(Cc2ccc(F)c(F)c2)CC3)cc1` [Compound 3, Isopropyl 1-(3,4-difluorobenzyl)-3′-(4-methoxyphenyl)-4′-oxo-3′,4′-dihydro-1′H-spiro[piperidine-4,2′-quinazoline]-7′-carboxylate] and `COc1ccc(N2C(=O)c3ccc(-c4cccnc4)cc3NC23CCN(Cc2ccc(F)c(F)c2)CC3)cc1` [Compound 40, 1-(3,4-Difluorobenzyl)-3′-(4-methoxyphenyl)-7′-(pyridin-3-yl)-1′H-spiro[piperidine-4,2′-quinazolin]-4′(3′H)-one] cannot be ordered by EC50: under 1000 nM for the first, under 1000 nM for the second.

`O=C1c2ccc(Br)cc2NC2(CCN(Cc3cccc4cnccc34)CC2)N1c1ccc(OC(F)(F)F)cc1` [Compound 27, 7′-Bromo-1-(isoquinolin-5-ylmethyl)-3′-(4-(trifluoromethoxy)phenyl)-1′H-spiro[piperidine-4,2′-quinazolin]-4′(3′H)-one] and `O=C1c2ccc(Br)cc2NC2(CCN(Cc3cccc4ncccc34)CC2)N1c1ccc(OC(F)(F)F)cc1` [Compound 57, 7′-Bromo-1-(quinolin-5-ylmethyl)-3′-(4-(trifluoromethoxy)phenyl)-1′H-spiro[piperidine-4,2′-quinazolin]-4′(3′H)-one] cannot be ordered by EC50: under 1000 nM for the first, under 1000 nM for the second.

`COc1ccc(N2C(=O)c3ccccc3NC23CCN(Cc2ccccc2C#N)CC3)cc1` [Compound 116, 2-((3′-(4-Methoxyphenyl)-4′-oxo-3′,4′-dihydro-1′H-spiro[piperidine-4,2′-quinazolin]-1-yl)methyl)benzonitrile] and `COc1ccc(N2C(=O)c3ccccc3NC23CCN(Cc2ccccc2C(F)(F)F)CC3)cc1` [Compound 66, 3′-(4-Methoxyphenyl)-1-(2-(trifluoromethyl)benzyl)-1′H-spiro[piperidine-4,2′-quinazolin]-4′(3′H)-one] fall in the same range of EC50: 1000 to 10000 nM for the first, 1000 to 10000 nM for the second.

`CCC(c1ccc(F)c(F)c1)N1CCC2(CC1)Nc1cc(Br)ccc1C(=O)N2c1ccc(OC(F)(F)F)cc1` (stereo not shown) [Compound 22, 7′-Bromo-1-(1-(3,4-difluorophenyl)propyl)-3′-(4-(trifluoromethoxy)phenyl)-1′H-spiro[piperidine-4,2′-quinazolin]-4′(3′H)-one] and `CCC(c1ccccc1)N1CCC2(CC1)Nc1cc(Br)ccc1C(=O)N2c1ccc(Cl)cc1` (stereo not shown) [Compound 61, 7′-Bromo-3′-(4-chlorophenyl)-1-(1-phenylpropyl)-1′H-spiro[piperidine-4,2′-quinazolin]-4′(3′H)-one] cannot be ordered by EC50: under 1000 nM for the first, under 1000 nM for the second.

First: O=C1c2ccc(C(F)(F)F)cc2NC2(CCN(Cc3cccc(Cl)c3)CC2)N1c1ccc(OC(F)(F)F)cc1 [Compound 10, 1-(3-Chlorobenzyl)-3′-(4-(trifluoromethoxy)phenyl)-7′-(trifluoromethyl)-1′H-spiro[piperidine-4,2′-quinazolin]-4′(3′H)-one]
Second: COc1ccc(N2C(=O)c3ccc(Cl)cc3NC23CCN(Cc2cccc(C#N)c2)CC3)cc1 [Compound 75, 3-((7′-Chloro-3′-(4-methoxyphenyl)-4′-oxo-3′,4′-dihydro-1′H-spiro[piperidine-4,2′-quinazolin]-1-yl)methyl)benzonitrile]
The EC50 of the first is lower: under 1000 nM for the first, 1000 to 10000 nM for the second.

First: O=C1c2ccc(Br)cc2NC2(CCN(Cc3ccnc4ccccc34)CC2)N1c1ccc(OC(F)(F)F)cc1 [Compound 47, 7′-Bromo-1-(quinolin-4-ylmethyl)-3′-(4-(trifluoromethoxy)phenyl)-1′H-spiro[piperidine-4,2′-quinazolin]-4′(3′H)-on]
Second: O=C1c2ccc(F)cc2NC2(CN(Cc3ccccc3Cl)C2)N1c1ccc(OC(F)(F)F)cc1 [Compound 70, 1-(2-Chlorobenzyl)-7′-fluoro-3′-(4-(trifluoromethoxy)phenyl)-1′H-spiro[azetidine-3,2′-quinazolin]-4′(3′H)-one]
The EC50 of the first is lower: under 1000 nM for the first, 1000 to 10000 nM for the second. The first is the more potent here.

First: COc1ccc(N2C(=O)c3ccccc3NC23CN(Cc2ccccc2)C3)cc1 [Compound 92, 1-Benzyl-3′-(4-methoxyphenyl)-1′H-spiro[azetidine-3,2′-quinazolin]-4′(3′H)-one]
Second: COc1ccc(N2C(=O)c3ccccc3NC23CN(Cc2ccccc2Cl)C3)cc1 [Compound 50, 1-(2-Chlorobenzyl)-3′-(4-methoxyphenyl)-1′H-spiro[azetidine-3,2′-quinazolin]-4′(3′H)-one]
The EC50 of the first is higher: 1000 to 10000 nM for the first, under 1000 nM for the second. The second is the more potent here.

Molecule `CSc1ccc(N2C(=O)c3ccc(-c4ccco4)cc3NC23CCN(Cc2ccc(F)c(F)c2)CC3)cc1` [Compound 41, 1-(3,4-Difluorobenzyl)-7′-(furan-2-yl)-3′-(4-(methylthio)phenyl)-1′H-spiro[piperidine-4,2′-quinazolin]-4′(3′H)-one] has an EC50 of under 1000 nM.
